Source: BindingDB's records for patent US10428066 (PROXIMAGEN, LLC, 2019)

Target: T1, Membrane primary amine oxidase (Homo sapiens, UniProt Q16853)
T1 sequence (Q16853 whole entry): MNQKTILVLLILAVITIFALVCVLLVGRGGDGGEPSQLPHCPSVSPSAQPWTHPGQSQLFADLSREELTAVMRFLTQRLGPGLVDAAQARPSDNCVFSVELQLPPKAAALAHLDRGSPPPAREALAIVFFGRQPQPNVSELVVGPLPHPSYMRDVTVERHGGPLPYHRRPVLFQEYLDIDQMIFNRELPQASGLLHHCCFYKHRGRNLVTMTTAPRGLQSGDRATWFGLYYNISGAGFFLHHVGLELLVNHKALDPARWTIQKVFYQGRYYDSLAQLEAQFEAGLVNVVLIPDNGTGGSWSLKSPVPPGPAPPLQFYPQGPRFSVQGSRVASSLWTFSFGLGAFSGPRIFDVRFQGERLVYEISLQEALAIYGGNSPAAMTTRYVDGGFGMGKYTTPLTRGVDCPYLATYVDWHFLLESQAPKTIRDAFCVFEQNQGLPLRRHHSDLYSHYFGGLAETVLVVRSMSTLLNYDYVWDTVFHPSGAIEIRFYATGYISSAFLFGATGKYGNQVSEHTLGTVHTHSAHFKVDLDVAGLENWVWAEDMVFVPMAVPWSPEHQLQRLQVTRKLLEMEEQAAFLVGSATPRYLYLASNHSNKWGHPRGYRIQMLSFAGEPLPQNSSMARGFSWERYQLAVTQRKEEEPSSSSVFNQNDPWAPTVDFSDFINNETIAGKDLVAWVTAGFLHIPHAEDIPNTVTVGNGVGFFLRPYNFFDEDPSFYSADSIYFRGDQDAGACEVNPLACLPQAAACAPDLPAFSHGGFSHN
Test: Biological Assay
Procedure: All primary assays were performed at RT. with purified recombinantly expressed human SSAO. […] In addition, secondary- and selectivity assays were performed using SSAO prepared from various tissues or purified rat recombinant SSAO. The enzyme activity was assayed with benzylamine as substrate by measuring either benzaldehyde production, using 14C-labeled substrate, or by utilizing the production of hydrogen peroxide in a horseradish peroxidase (HRP) coupled reaction. Briefly, test compounds were dissolved in dimethyl sulfoxide (DMSO) to a concentration of 10 mM. Dose-response measurements were assayed by either creating 1:10 serial dilutions in DMSO to produce a 7 point curve or by making 1:3 serial dilutions in DMSO to produce 11 point curves.

## Cc1cc(N)ncc1-c1cc2ccncc2n1-c1ccc(Cl)cc1 [5-[1-(4-Chlorophenyl)-1H-pyrrolo[2,3-c]pyridin-2-yl]-4-methylpyridin-2-amine; bis(trifluoroacetic acid)]
  IC50: in the range around 0.125 µM
